Test results as given in patent US5726189A, “Method for imaging nicotinic acetylcholinergic receptors in the brain using radiolabeled pyridyl-7-azabicyclo [2.2.1]heptanes” (priority 1996, dated 1998).

System: nAChRs in mouse brain
Test: regional distribution of [18F]FPH in mouse brain after tail vein injection
Type: in vivo
Experimental: The utility of [^18 F] FPH as an agent to label, in vivo, nAChRs in mouse brain was tested. Mice received 0.4 μCi of [^18 F]FPH (sp. act >2000 mCi/μmol) by tail vein injection. The regional distribution of the tracer in brain was assessed in the absence and presence of unlabeled epibatidine. […] In in vitro assays, the Ki for unlabeled FPH against nAChRs labeled with [^3 H] epibatidine was approximately 3 pM. […] FPH would be an excellent ligand for imaging nAChRs in living human brain.

[1] = 30 minutes post injection, tail vein, 0.4 μCi

With `[18F]c1ccc(C2CC3CCC2N3)cn1` (racemic) [[^18 F]FPH, (±)-exo-2-(2-[^18 F]fluoro-5-pyridyl)-7-azabicyclo[2.2.1]heptane] the uptake in cerebellum [1] was < 3 % ID/g, the uptake in cortex [1] was 6.2 % ID/g and the uptake in hippocampus [1] was 6 % ID/g. The “uptake in superior colliculus” value [1] was 10 % ID/g, the uptake in thalamus [1] was 11 % ID/g and the “binding in all regions after pretreatment with unlabeled epibatidine” value (pretreatment with unlabeled epibatidine 20 μg/kg) was ~ 3 % ID/g.
